Results reported in US10112929B2, “Lactams as inhibitors of rock” (BRISTOL-MYERS SQUIBB COMPANY, priority 2015, dated 2018).
Structures can show the parent of a compound that is named as a salt.

biological target: ROCK2 (Homo sapiens (Human), UniProt O75116); test: biochemical
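Further: rho kinase enzyme reaction halted with EDTA, phospho- and non-phospho peptide separated for read-out, kinase activity inhibition derived across a dose-response series, DMSO under 2%.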

Sequence of ROCK2 (O75116 whole entry, species assumed): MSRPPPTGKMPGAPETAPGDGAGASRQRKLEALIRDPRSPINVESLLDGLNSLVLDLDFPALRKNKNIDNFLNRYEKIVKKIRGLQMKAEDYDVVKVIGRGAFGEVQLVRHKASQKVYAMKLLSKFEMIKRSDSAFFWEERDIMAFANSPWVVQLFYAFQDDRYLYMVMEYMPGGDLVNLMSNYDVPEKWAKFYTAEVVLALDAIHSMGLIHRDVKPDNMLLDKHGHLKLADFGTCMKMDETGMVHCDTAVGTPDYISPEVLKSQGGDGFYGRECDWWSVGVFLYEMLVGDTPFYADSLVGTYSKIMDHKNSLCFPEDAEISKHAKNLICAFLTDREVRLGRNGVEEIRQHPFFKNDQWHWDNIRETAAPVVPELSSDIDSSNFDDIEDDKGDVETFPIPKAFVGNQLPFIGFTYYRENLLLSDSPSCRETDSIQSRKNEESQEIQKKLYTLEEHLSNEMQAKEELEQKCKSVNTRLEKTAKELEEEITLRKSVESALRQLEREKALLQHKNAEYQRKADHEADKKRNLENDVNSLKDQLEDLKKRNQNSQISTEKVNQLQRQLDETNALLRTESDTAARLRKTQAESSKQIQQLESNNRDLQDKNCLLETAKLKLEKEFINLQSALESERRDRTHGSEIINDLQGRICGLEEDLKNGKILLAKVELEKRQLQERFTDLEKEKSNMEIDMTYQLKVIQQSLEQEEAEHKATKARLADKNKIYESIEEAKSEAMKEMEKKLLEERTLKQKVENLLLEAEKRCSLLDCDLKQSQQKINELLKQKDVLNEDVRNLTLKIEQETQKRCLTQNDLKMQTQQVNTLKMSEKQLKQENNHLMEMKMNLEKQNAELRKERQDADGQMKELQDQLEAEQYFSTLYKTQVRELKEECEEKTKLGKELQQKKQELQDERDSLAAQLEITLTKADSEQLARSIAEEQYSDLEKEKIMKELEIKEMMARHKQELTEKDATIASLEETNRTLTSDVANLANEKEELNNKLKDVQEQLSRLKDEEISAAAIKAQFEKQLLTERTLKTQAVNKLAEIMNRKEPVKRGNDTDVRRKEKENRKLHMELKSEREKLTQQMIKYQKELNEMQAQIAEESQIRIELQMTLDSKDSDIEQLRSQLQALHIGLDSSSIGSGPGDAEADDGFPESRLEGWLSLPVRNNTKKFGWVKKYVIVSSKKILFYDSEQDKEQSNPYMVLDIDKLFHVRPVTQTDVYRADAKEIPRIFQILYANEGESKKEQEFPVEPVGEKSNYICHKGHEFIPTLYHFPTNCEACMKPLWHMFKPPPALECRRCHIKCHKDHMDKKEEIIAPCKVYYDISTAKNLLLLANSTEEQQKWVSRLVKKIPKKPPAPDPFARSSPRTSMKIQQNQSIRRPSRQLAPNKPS

IC50 [nM]	SMILES
10 to 100	COc1cc(N2CCC(Nc3cc(F)cc(F)c3)C2=O)ccc1-c1cn[nH]c1 (single isomer, unassigned) [Example 145, 3-((3,5-difluorophenyl)amino)-1-(3-methoxy-4-(1H-pyrazol-4-yl)phenyl) pyrrolidin-2-one]
10 to 100	COc1ccc(F)c(NC2CCN(c3ccc(-c4cn[nH]c4)cc3)C2=O)c1 (single isomer, unassigned) [Example 239, 1-(4-(1H-pyrazol-4-yl)phenyl)-3-((2-fluoro-5-methoxyphenyl)amino)pyrrolidin-2-one]
< 10	CCc1nc(N2CCC(Nc3cccc(OC)c3)C2=O)ccc1-c1cn[nH]c1 (single isomer, unassigned) [Example 313, 1-(6-ethyl-5-(1H-pyrazol-4-yl)pyridin-2-yl)-3-((3-methoxyphenyl)amino) pyrrolidin-2-one]
< 10	COc1nc(N2CCC(Nc3cccc(S(N)(=O)=O)c3)C2=O)ccc1-c1cn[nH]c1 (racemic) [Example 268, 3-((1-(6-methoxy-5-(1H-pyrazol-4-yl)pyridin-2-yl)-2-oxopyrrolidin-3-yl)amino)benzenesulfonamide]
< 10	COc1cccc(N[C@@H]2CCN(c3ccc(-c4cn[nH]c4)cc3)C2=O)c1 [Example 383, (R)-1-(4-(1H-Pyrazol-4-yl)phenyl)-3-((3-methoxyphenyl)amino)pyrrolidin-2-one]
10 to 100	COc1cccc(NC2CCN(c3ccc(-c4ccnc5[nH]ccc45)c(OC)n3)C2=O)c1 (racemic) [Example 128, 1-(6-methoxy-5-(1H-pyrrolo[2,3-b]pyridin-4-yl)pyridin-2-yl)-3-((3-methoxyphenyl)amino) pyrrolidin-2-one]
10 to 100	O=C1C(c2ccccc2Cl)CCN1c1ccc(-c2cn[nH]c2)cc1 (stereo not shown) [Example 105, 1-(4-(1H-pyrazol-4-yl)phenyl)-3-(2-chlorophenyl)pyrrolidin-2-one]
10 to 100	COc1cc(N2CCC(Nc3c(F)cccc3OC)C2=O)ccc1-c1cn[nH]c1 (single isomer, unassigned) [Example 135, 3-((2-fluoro-6-methoxyphenyl)amino)-1-(3-methoxy-4-(1H-pyrazol-4-yl)phenyl) pyrrolidin-2-one]
100 to 2200	COc1cccc([C@@H](C)NC2CCN(c3ccc(-c4cn[nH]c4)cc3)C2=O)c1 (stereo partly drawn) [Example 60, 1-(4-(1H-pyrazol-4-yl)phenyl)-3-(((R)-1-(3-methoxyphenyl)ethyl)amino)pyrrolidin-2-one, TFA]
10 to 100	COc1nc(N2CCC(N3CCS(=O)(=O)CC3)C2=O)ccc1-c1cn[nH]c1 (racemic) [Example 280, 3-(1,1-dioxidothiomorpholino)-1-(6-methoxy-5-(1H-pyrazol-4-yl)pyridin-2-yl)pyrrolidin-2-one]
100 to 2200	COc1cccc(NC2CCN(c3ccc(-c4cn[nH]c4)c(C(F)F)c3)C2=O)c1 (single isomer, unassigned) [Example 175, 1-(3-(difluoromethyl)-4-(1H-pyrazol-4-yl)phenyl)-3-((3-methoxyphenyl)amino) pyrrolidin-2-one]
100 to 2200	O=C1C(CCc2ccccc2Cl)CCN1c1ccc(-c2cn[nH]c2)cc1 (stereo not shown) [Example 100, 1-(4-(1H-pyrazol-4-yl)phenyl)-3-(2-chlorophenethyl)pyrrolidin-2-one]
100 to 2200	COc1cc(F)cc(NC2CCN(c3ccc(-c4cn[nH]c4)c(C#N)c3)C2=O)c1 (single isomer, unassigned) [Example 374, 5-(3-((3-fluoro-5-methoxyphenyl)amino)-2-oxopyrrolidin-1-yl)-2-(1H-pyrazol-4-yl)benzonitrile]
< 10	COc1nc(N2CCC(Nc3ccccc3F)C2=O)ccc1-c1cn[nH]c1 (racemic) [Example 224, 3-((2-fluorophenyl)amino)-1-(6-methoxy-5-(1H-pyrazol-4-yl)pyridin-2-yl)pyrrolidin-2-one]
10 to 100	COc1nc(N2CCC(N3CCC(CO)CC3)C2=O)ccc1-c1cn[nH]c1 (racemic) [Example 289, 3-(4-(hydroxymethyl)piperidin-1-yl)-1-(6-methoxy-5-(1H-pyrazol-4-yl)pyridin-2-yl)pyrrolidin-2-one]
100 to 2200	COc1cccc(OC2CCN(c3ccc(-c4ccc5[nH]ncc5c4)c(OC)n3)C2=O)c1 (single isomer, unassigned) [Example 123, 1-(5-(1H-indazol-5-yl)-6-methoxypyridin-2-yl)-3-(3-methoxyphenoxy)pyrrolidin-2-one]
10 to 100	Cc1nc(N2CCC(Nc3cccc(OCC4CC4)c3)C2=O)ccc1-c1cn[nH]c1 (single isomer, unassigned) [Example 190, 3-((3-(cyclopropylmethoxy)phenyl)amino)-1-(6-methyl-5-(1H-pyrazol-4-yl)pyridin-2-yl)pyrrolidin-2-one]
10 to 100	O=C1C(Oc2ccccc2Cl)CCN1c1ccc(-c2cn[nH]c2)cc1 (stereo not shown) [Example 110, 1-(4-(1H-pyrazol-4-yl)phenyl)-3-(2-chlorophenoxy)pyrrolidin-2-one]
10 to 100	COc1nc(N2CCC(N3CCC(F)CC3)C2=O)ccc1-c1cn[nH]c1 (racemic) [Example 296, 3-(4-fluoropiperidin-1-yl)-1-(6-methoxy-5-(1H-pyrazol-4-yl)pyridin-2-yl)pyrrolidin-2-one hydrochloride]

IC50 [nM]	SMILES
< 10	COc1cccc(NC2CCN(c3ccc(-c4cn[nH]c4)c(OC)n3)C2=O)c1 (single isomer, unassigned) [Example 196, 1-(6-methoxy-5-(1H-pyrazol-4-yl)pyridin-2-yl)-3-((3-methoxyphenyl)amino) pyrrolidin-2-one]
< 10	COc1cccc(NC2CCN(c3cnc(-c4cn[nH]c4)c(OC)n3)C2=O)c1 (stereo not shown) [Example 134, 1-(6-Methoxy-5-(1H-pyrazol-4-yl)pyrazin-2-yl)-3-((3-methoxyphenyl)amino) pyrrolidin-2-one]
100 to 2200	O=C1C(Nc2cccc(OCC3CC3)c2)CCN1c1ccc(-c2cn[nH]c2)cn1 (single isomer, unassigned) [Example 320, 1-(5-(1H-pyrazol-4-yl)pyridin-2-yl)-3-((3-(cyclopropylmethoxy)phenyl)amino) pyrrolidin-2-one]
< 10	COc1cc(F)cc(NC2CCN(c3ccc(-c4cn[nH]c4)c(OC)n3)C2=O)c1 (single isomer, unassigned) [Example 198, 3-((3-fluoro-5-methoxyphenyl)amino)-1-(6-methoxy-5-(1H-pyrazol-4-yl)pyridin-2 yl)pyrrolidin-2-one]
10 to 100	O=C1C(Nc2cnccn2)CCN1c1ccc(-c2cn[nH]c2)cc1 (racemic) [Example 226, 1-(4-(1H-pyrazol-4-yl)phenyl)-3-(pyrazin-2-ylamino)pyrrolidin-2-one]
100 to 2200	COc1nc(N2CCC(N3CC[C@H](F)C3)C2=O)ccc1-c1cn[nH]c1 (mixture of isomers) [Example 290, (3S)-3-fluoro-1′-(6-methoxy-5-(1H-pyrazol-4-yl)pyridin-2-yl)-[l,3′-bipyrrolidin]-2′-one hydrochloride]
10 to 100	COCc1cc(N2CCC(Nc3cccc(OC)c3)C2=O)ccc1-c1cn[nH]c1 (single isomer, unassigned) [Example 184, 1-(3-(methoxymethyl)-4-(1H-pyrazol-4-yl)phenyl)-3-((3-methoxyphenyl)amino) pyrrolidin-2-one]
< 10	COc1cc(F)cc(NC2CCN(c3cc(F)c(-c4cn[nH]c4)cc3F)C2=O)c1 (single isomer, unassigned) [Example 352, 1-(2,5-difluoro-4-(1H-pyrazol-4-yl)phenyl)-3-((3-fluoro-5-methoxyphenyl)amino)pyrrolidin-2-one]
< 10	O=C1C(Nc2cccc(F)c2F)CCN1c1ccc(-c2cn[nH]c2)cc1 (single isomer, unassigned) [Example 23, 1-(4-(1H-pyrazol-4-yl)phenyl)-3-((2,3-difluorophenyl)amino)pyrrolidin-2-one]
100 to 2200	COc1ccc(N[C@@H]2CCN(c3ccc(-c4cn[nH]c4)cc3)C2=O)cc1OC [Example 389, (R)-1-(4-(1H-pyrazol-4-yl)phenyl)-3-((3,4-dimethoxyphenyl)amino)pyrrolidin-2-one]
10 to 100	COc1cccc(NC2CCN(c3ccc(-c4cn[nH]c4)nc3)C2=O)c1 (single isomer, unassigned) [Example 297, 1-(6-(1H-pyrazol-4-yl)pyridin-3-yl)-3-((3-methoxyphenyl)amino)pyrrolidin-2-one]
10 to 100	CCOc1cc(N2CCC(Nc3ccc(F)c(OC)c3)C2=O)ccc1-c1cn[nH]c1 (single isomer, unassigned) [Example 38, 1-(3-ethoxy-4-(1H-pyrazol-4-yl)phenyl)-3-((4-fluoro-3-methoxyphenyl)amino)pyrrolidin-2-one]
< 10	O=C1C(Nc2cccc(OC(F)F)c2)CCN1c1ccc(-c2cn[nH]c2)cc1 (stereo not shown) [Example 7, 1-(4-(1H-pyrazol-4-yl)phenyl)-3-((3-(difluoromethoxy)phenyl)amino)pyrrolidin-2-one]
< 10	NC(=O)c1cccc(NC2CCN(c3ccc(-c4cn[nH]c4)cc3)C2=O)c1 (stereo not shown) [Example 388, 3-((1-(4-(1H-pyrazol-4-yl)phenyl)-2-oxopyrrolidin-3-yl)amino)benzamide]
100 to 2200	COc1ccc(N[C@@H]2CCN(c3ccc(-c4cn[nH]c4)cc3)C2=O)c(OC)c1 [Example 384, (R)-1-(4-(1H-pyrazol-4-yl)phenyl)-3-((2,4-dimethoxyphenyl)amino)pyrrolidin-2-one]
100 to 2200	COc1cc(F)cc(NC2CCN(c3ccc(-c4cn[nH]c4)c(Cl)c3)C2=O)c1 (single isomer, unassigned) [Example 158, 1-(3-chloro-4-(1H-pyrazol-4-yl)phenyl)-3 ((3-fluoro-5-methoxyphenyl)amino) pyrrolidin-2-one]
10 to 100	O=C1C(Nc2ccc(F)cc2F)CCN1c1ccc(-c2cn[nH]c2)cc1 (single isomer, unassigned) [Example 25, 1-(4-(1H-pyrazol-4-yl)phenyl)-3-((2,4-difluorophenyl)amino)pyrrolidin-2-one]
10 to 100	COc1cccc(NC2CCN(c3ccc(-c4cn[nH]c4)c(C(F)F)c3)C2=O)c1 (single isomer, unassigned) [Example 176, 1-(3-(difluoromethyl)-4-(1H-pyrazol-4-yl)phenyl)-3-((3-methoxyphenyl)amino) pyrrolidin-2-one]
